Read-outs that look alike come from different tables or passages of the source.
Tests used:
[1] = system: fresh human hepatocytes; assay: Release of active metabolite in fresh human hepatocytes; assay type: in vitro ADME; details: 10 μM compound; for FHH TP Cmax: fresh human hepatocytes; for FHH TP AUC: fresh human hepatocytes, 6, 24 and 48 hours
Summary of the method: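 Overnight-acclimatized hepatocytes (0.8 million cells/well human, 0.5 million mouse) incubated at 37 °C with 10 μM test compound (0.1% DMSO). Sampled at 6, 24, 48 h (human) or 1, 4, 8, 12, 24 h (mouse); cells washed, extracted in cold 70% methanol, intracellular content quantified by LC-MS/MS with internal standard.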

[2] = system: HCV genotype 1b replicon; assay: HCV Replicon Assay; assay type: cell-based; details: Zluc cells (Huh-7-derived, HCV genotype 1b replicon, luciferase reporter), 72 hours, read-out: HCV Replicon EC50
Summary of the method: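 Zluc Huh-7 cells with HCV genotype 1b replicon and luciferase reporter treated with 5-fold dilutions (100 μM to 0.0000512 μM final) in duplicate, or at 1 and 10 μM. Luminescence read with ONE-glo; EC50 from dose-response fits, or % inhibition at the fixed concentrations.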

[3] = system: mouse hepatocytes; assay: Release of active metabolite in mouse hepatocytes; assay type: in vitro ADME; details: 10 μM compound; for MsH Cmax: mouse hepatocytes; for MsH AUC: mouse hepatocytes, 1, 4, 8, 12 and 24 hours
Description: Plates of fresh human and mouse hepatocytes were obtained on ice. The medium was removed and replaced with hepatocyte culture medium (William's E supplemented with penicillin-streptomycin, 1% L-glutamine, 1% insulin-transferrin-selenium and 0.1 μM Dexamethasone (Invitrogen) or with Invitro GRO HI medium complemented with Torpedo antibiotics (Celsis)). Cells were left overnight in an incubator at 37° C. to acclimatize to culture and the medium.
Hepatocyte incubations were conducted at a final volume of 0.5 mL hepatocyte culture medium/well (0.8 million cells/well for human and 0.5 million cells/well for mouse; 12 well plate no overlay, collagen coat). Culture medium from overnight incubation of cells was removed and replaced with fresh medium, pre-warmed to 37° C., containing 10 μM of test compound from a stock solution in DMSO (final DMSO concentration was 0.1%). At each specific time point, incubation medium was removed and cell monolayers were carefully washed two times with ice-cold PBS. Following the last wash, all PBS was carefully removed and 1.0 mL of extraction solution (ice-cold 70% methanol/30% water) added. Cells were scraped off and suspended in the extraction solution, transferred to 2 mL polypropylene microfuge tubes and intracellular contents extracted overnight at −20° C.
After the overnight treatment the cellular extracts were prepared by centrifugation at 16,000×g for 10 min to remove cellular debris. The remaining sample was then dried using a refrigerated centrivap concentrator. Dry extracts were reconstituted in 1000 μL of HPLC-grade water and centrifuged at 16,000×g for 10 min. Aliquots (100 μL each) of the supernatant were transferred into a 96 well plate and internal standard (4 ng/mL final concentration) was added as the internal standard (IS) for LC-MS/MS analysis.
The incubation time points were 6, 24 and 48 hours for human hepatocytes and 1, 4, 8, 12 and 24 hours for mouse hepatocytes.

[4] = Liver pharmacokinetics following a single oral dose in CD-1 mice; assay type: in vivo; details: single oral dose 25 mg/kg in PEG 200, CD-1 male mice; given at 1 μmol/kg; 25 mg/kg
Description: (§1) A single oral dose of test compound at 25 mg/kg in PEG 200 (dose volume 5 mL/kg) was administered to nine CD-1 male mice. Five untreated animals were used for the collection of control plasma and liver. Terminal plasma and liver samples were collected from three animals per time point at 4, 12 and 24 hours post dose. Liver specimens were collected from all animals immediately after the incision. Freezing forceps stored in liquid nitrogen were used to freeze the liver before excision.
Liver samples were analyzed for the active species 2′-methylguanosine triphosphate (2′-MeGTP) by LC-MS/MS. 2′-MeGTP levels were assayed by homogenizing (on ice) a known weight of mouse liver with 4× volume of 0.95 M trichloroacetic acid (TCA). Internal standard solution was added to the homogenate followed by neutralization with 20% ammonium hydroxide solution and addition of 500 μL 1% formic acid. The tissue samples were extracted by weak anion exchange solid phase extraction (SPE). Post extraction, the eluates were evaporated under nitrogen, followed by reconstitution before injection onto the LC-MS/MS system. The samples were chromatographed on a Luna NH2 column using a gradient system of ammonium acetate (1 mM to 20 mM and pH 8.0 to pH 10.0) in water and acetonitrile (70:30). The analyte was detected and quantified by tandem mass spectrometry in positive ion mode on an API4000 equipped with a Turbo Ionspray® interface. The calibration range was 10 to 10000 pmol/mL in mouse liver homogenate (50 to 50000 pmol/g of mouse liver).

[5] = system: Zluc cells; assay: cytotoxicity evaluation (CellTiter-Blue Cell Viability Assay); details: read-out: HCV Replicon CC50; Zluc cells, CellTiter-Blue
[6] = Plasma pharmacokinetics following a single oral dose in CD-1 mice; assay type: in vivo; details: single oral dose 25 mg/kg in PEG 200, CD-1 male mice; given at 1 μmol/kg; 25 mg/kg
Description: as §1
Plasma samples were analyzed for 2′-methylguanosine (2′-MeG) by LC-MS/MS. The internal standard (IS) was 2′-MeG-D3. For protein precipitation and extraction, each plasma sample (50 μL) was treated with 500 μL of 0.2% formic acid in acetonitrile and 20 μL of the internal standard working solution. After vortexing and centrifugation, 500 μL of the sample extracts were transferred to a new plate, dried under N2 at ˜28° C. and reconstituted with 75 μL of 0.2% FA in water. The extracts were chromatographed on an Aquasil C18 column using a gradient system of 0.2% formic acid in water and acetonitrile. The analytes were detected and quantified by tandem mass spectrometry in positive ion mode on an MDS Sciex API5000 equipped with a Turbo Ionspray® interface. The calibration range was 0.500 (LLOQ) to 200 ng/mL in mouse plasma.

[7] = Stability in simulated intestinal fluid; assay type: in vitro ADME; details: 100 μM, 2 hours at 37° C., percent of the peak area at time zero
Description: (§2) Simulated gastric and intestinal fluids containing pepsin and pancreatin respectively were prepared according to the U.S. Pharmacopoeia USP291 procedure (www.pharmacopeia.cn/v29240/usp29nf24s0_ris1s126.html). Compounds (final concentration 100 μM) were incubated in duplicate in the appropriate fluid for 2 hours at 37° C. The samples were quenched with 200 μl cold acetonitrile, vortexed for 30 seconds and then centrifuged at 16,100 g for 10 min. The supernatants were analyzed by HPLC on a C-18 column with UV detection at 252 nm. The time 0 samples were prepared by adding SGF or SIF fluid to the quenching solvent followed by the test compound. Stability of the compounds was determined by peak area of the test compounds after incubation and calculated as percent of the peak area observed at time zero.

[8] = Stability in mouse blood; assay type: in vitro ADME; details: on ice, percent unchanged test compound
Description: (§3) Stability of compounds were determined in fresh human whole blood with K2EDTA as the anticoagulant (stored refrigerated at 2-8° C. and used within 7 days of receipt). The experiment was conducted with three replicates for each time point. Whole blood, pre-incubated at 37° C. for 10-15 minutes, was fortified with a solution of test compound for a final concentration of 0.5 μM and mixed for 30 sec. At intervals (0, 0.5, 1 and 2 hr), three 50 μL aliquots were combined with 200 μL (each) of an ice-cold solution of the internal standard (carbutamide 500 ng/mL in acetonitrile). The samples were vortexed for 30 sec and then centrifuged at 16,100 g for 5 min. The supernatant was analyzed by LC-MS/MS. The MS peak area ratio of the test compounds versus the internal standard was calculated and percent unchanged test compound was calculated for each time point using this ratio.
The stability in mouse blood was determined on ice at 0, 0.5 and 1 hr as herein.

[9] = Stability in fresh human whole blood; assay type: in vitro ADME; details: 0.5 μM, percent unchanged test compound
Description: as §3

[10] = in vitro; details: human, HCV Replicon CC50, Zluc cells, CellTiter-Blue
[11] = Stability in simulated gastric fluid; assay type: in vitro ADME; details: 100 μM, 2 hours at 37° C., percent of the peak area at time zero
Description: as §2

Row | SMILES | FHH TP Cmax [1] | FHH TP AUC [1] | EC50 [2] | MsH Cmax [3] | MsH AUC [3] | Ms Liver 2′-MeGTP AUC [4] | CC50 [5] | Ms Plasma 2′-MeG AUC [6] | Ms Plasma 2′-MeG Cmax [6] | Stability SIF [7] | Stability WB_Mouse (ice; 1 hr) [8] | Stability WB_Human (37° C.; 2 hr) [9] | EC50 ([2]; Hepatitis C virus, 72 h) | CC50 [10] | Stability SGF [11]
1 | CCOc1nc(N)nc2c1ncn2[C@@H]1O[C@@H]2COP(=O)(OCCSC(=O)C(C)(C)CO)O[C@H]2[C@@]1(C)O (single isomer, unassigned) [Compound 4 Diastereomer 2] | 681 pmol/mill cells | 24086 pmol · hr/mill cells | < 0.25 µM | 386 pmol/mill cells | 13328 pmol · hr/mill cells | 1100 pmol · hr/g at 1 μmol/kg | < 50 µM | 24 pmol · hr/mL at 1 μmol/kg | 1.7 pmol/mL at 1 μmol/kg | 77% | 105% | 59% |  |  | 
2 | CCOc1nc(N)nc2c1ncn2[C@@H]1O[C@@H]2COP(=O)(OCCSC(=O)C(C)(C)CO)O[C@H]2[C@@]1(C)F (single isomer, unassigned) [Compound 5 Diastereomer 1] | 204 pmol/mill cells | 7185 pmol · hr/mill cells |  | 374 pmol/mill cells | 9866 pmol · hr/mill cells | 1200 pmol · hr/g at 1 μmol/kg |  | 97 pmol · hr/mL at 1 μmol/kg | 8.1 pmol/mL at 1 μmol/kg | 86% | 99% | 82% | < 0.25 µM | > 50 µM | 108%
3 | CCOc1nc(N)nc2c1ncn2[C@@H]1O[C@@H]2COP(=O)(OCCSC(=O)C(C)(C)CO)O[C@H]2[C@@]1(C)F (single isomer, unassigned) [Compound 5 Diastereomer 2] | 448 pmol/mill cells | 9694 pmol · hr/mill cells | < 0.25 µM | 302 pmol/mill cells | 8713 pmol · hr/mill cells | 2600 pmol · hr/g at 1 μmol/kg | > 50 µM | 220 pmol · hr/mL at 1 μmol/kg | 23 pmol/mL at 1 μmol/kg | 77% | 93% | 46% |  |  | 
4 | CCOc1nc(N)nc2c1ncn2[C@@H]1O[C@@H]2COP(=O)(OCCSSC(C)(C)C)O[C@H]2[C@@]1(C)F (single isomer, unassigned) [Compound 24 Diastereomer 1] | 154 pmol/mill cells | 3399 pmol · hr/mill cells |  |  |  |  |  |  |  | 90% |  | 91% | < 0.25 µM | < 50 µM | 87%
5 | CCOc1nc(N)nc2c1ncn2[C@@H]1O[C@@H]2COP(=O)(OCCSSC(C)(C)C)O[C@H]2[C@@]1(C)F (single isomer, unassigned) [Compound 24 Diastereomer 2] | 105 pmol/mill cells | 3031 pmol · hr/mill cells | < 0.25 µM |  |  |  | < 50 µM |  |  | 47% |  | 73% |  |  | 30%
6 | CCOc1nc(N)nc2c1ncn2[C@@H]1O[C@@H]2COP(=O)(OC[C@H](C)NC(=O)OC)O[C@H]2[C@@]1(C)F (single isomer, unassigned; diastereomer 2) [Compound 9 Diastereomer 2] | BLD^a | BLD^a | < 0.25 µM |  |  |  | > 50 µM |  |  | 105% |  | 85% |  |  | 85%
